PubChem BioAssay (NCI)
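Five concentrations, 48 hours, 96-well plates. Definition used: TGI = concentration required for complete inhibition of growth.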

Tests used:
Experiment in all cases: NCI-60 cell line screen, 48 h
786-0 renal = test system: 786-0 renal
A498 renal = test system: A498 renal
A549 NSCLC = test system: A549 NSCLC
ACHN renal = test system: ACHN renal
CAKI-1 renal = test system: CAKI-1 renal
CCRF-CEM leukemia = test system: CCRF-CEM leukemia
COLO 205 colon = test system: COLO 205 colon
DLD-1 colon = test system: DLD-1 colon
DMS 114 small cell lung = test system: DMS 114 small cell lung
DMS 273 small cell lung = test system: DMS 273 small cell lung
EKVX NSCLC = test system: EKVX NSCLC
HCC-2998 colon = test system: HCC-2998 colon
HCT-116 colon = test system: HCT-116 colon
HCT-15 colon = test system: HCT-15 colon
HL-60(TB) leukemia = test system: HL-60(TB) leukemia
HOP-18 NSCLC = test system: HOP-18 NSCLC
HOP-62 NSCLC = test system: HOP-62 NSCLC
HOP-92 NSCLC = test system: HOP-92 NSCLC
HT29 colon = test system: HT29 colon
IGROV1 ovarian = test system: IGROV1 ovarian
K-562 leukemia = test system: K-562 leukemia
KM12 colon = test system: KM12 colon
KM20L2 colon = test system: KM20L2 colon
LOX IMVI melanoma = test system: LOX IMVI melanoma
LXFL 529 NSCLC = test system: LXFL 529 NSCLC
M14 melanoma = test system: M14 melanoma
MALME-3M melanoma = test system: MALME-3M melanoma
MOLT-4 leukemia = test system: MOLT-4 leukemia
NCI-H226 lung = test system: NCI-H226 lung
NCI-H23 lung = test system: NCI-H23 lung
NCI-H460 lung = test system: NCI-H460 lung
NCI-H522 lung = test system: NCI-H522 lung
OVCAR-3 ovarian = test system: OVCAR-3 ovarian
OVCAR-4 ovarian = test system: OVCAR-4 ovarian
OVCAR-5 ovarian = test system: OVCAR-5 ovarian
OVCAR-8 ovarian = test system: OVCAR-8 ovarian
RPMI-8226 leukemia = test system: RPMI-8226 leukemia
RXF 393 renal = test system: RXF 393 renal
RXF-631 renal = test system: RXF-631 renal
SF-268 CNS = test system: SF-268 CNS
SF-295 CNS = test system: SF-295 CNS
SF-539 CNS = test system: SF-539 CNS
SK-MEL-2 melanoma = test system: SK-MEL-2 melanoma
SK-MEL-28 melanoma = test system: SK-MEL-28 melanoma
SK-MEL-5 melanoma = test system: SK-MEL-5 melanoma
SK-OV-3 ovarian = test system: SK-OV-3 ovarian
SN12C renal = test system: SN12C renal
SNB-19 CNS = test system: SNB-19 CNS
SNB-75 CNS = test system: SNB-75 CNS
SNB-78 CNS = test system: SNB-78 CNS
SR leukemia = test system: SR leukemia
SW-620 colon = test system: SW-620 colon
TK-10 renal = test system: TK-10 renal
U251 CNS = test system: U251 CNS
UACC-257 melanoma = test system: UACC-257 melanoma
UACC-62 melanoma = test system: UACC-62 melanoma
UO-31 renal = test system: UO-31 renal
XF 498 CNS = test system: XF 498 CNS

Measured: TGI

CCOC(=O)CCC(NC(=O)c1ccc(N=Cc2nc3ccccc3nc2-c2ccccc2)cc1)C(=O)OCC (stereo not drawn)
> 100 µM: 786-0 renal | A498 renal | A549 NSCLC | ACHN renal | CAKI-1 renal | CCRF-CEM leukemia | COLO 205 colon | DLD-1 colon | DMS 114 small cell lung | DMS 273 small cell lung | EKVX NSCLC | HCC-2998 colon | HCT-116 colon | HCT-15 colon | HL-60(TB) leukemia | HOP-18 NSCLC | HOP-62 NSCLC | HOP-92 NSCLC | HT29 colon | IGROV1 ovarian | K-562 leukemia | KM12 colon | KM20L2 colon | LOX IMVI melanoma | LXFL 529 NSCLC | M14 melanoma | MALME-3M melanoma | MOLT-4 leukemia | NCI-H226 lung | NCI-H23 lung | NCI-H460 lung | NCI-H522 lung | OVCAR-3 ovarian | OVCAR-4 ovarian | OVCAR-5 ovarian | OVCAR-8 ovarian | RPMI-8226 leukemia | RXF 393 renal | RXF-631 renal | SF-268 CNS | SF-295 CNS | SF-539 CNS | SK-MEL-2 melanoma | SK-MEL-28 melanoma | SK-MEL-5 melanoma | SK-OV-3 ovarian | SN12C renal | SNB-19 CNS | SNB-75 CNS | SNB-78 CNS | SR leukemia | SW-620 colon | TK-10 renal | U251 CNS | UACC-257 melanoma | UACC-62 melanoma | UO-31 renal | XF 498 CNS
